Results from US20050101595A1, “N-containing cycloalkyl-substituted amino-thiazole derivatives and pharmaceutical compositions for inhibiting cell proliferation and methods for their use” (PFIZER INC., priority 2003, published 2005).
Counter-ions that a name gives are not always drawn. Like-named read-outs stand apart in the source and are kept apart here.

What was measured:
[1] = target: CDK2/Cyclin A (Homo sapiens, UniProt P24941); experiment: Inhibition of CDK2/Cyclin A Retinoblastoma Kinase Activity; format: biochemical; details: apparent Ki, CDK2/proteolyzed cyclin A, Rb fragment substrate, 25 μM ATP
Summary of the method: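 Human CDK2, baculovirus/insect-cell expressed, complexed with proteolyzed cyclin A (10 nM or 19 nM CDK2) phosphorylates an Rb fragment with 25 μM [32P/33P]ATP at pH 7.4, 30° C, for 60 or 75 minutes under initial-rate conditions. Filter-captured radioactivity is read by phosphorimager; apparent Ki from competitive-inhibition fits.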

[2] = target: human CDK4 and genetically truncated (1-264) cyclin D3 (Homo sapiens, UniProt P11802); experiment: Inhibition of CDK4/Cyclin D Retinoblastoma Kinase Activity; format: biochemical; details: apparent Ki, CDK4/truncated cyclin D3, Rb fragment substrate, 25 μM ATP
Chain of human CDK4 and genetically truncated (1-264) cyclin D3 (P11802 whole entry, the tested form may be a part): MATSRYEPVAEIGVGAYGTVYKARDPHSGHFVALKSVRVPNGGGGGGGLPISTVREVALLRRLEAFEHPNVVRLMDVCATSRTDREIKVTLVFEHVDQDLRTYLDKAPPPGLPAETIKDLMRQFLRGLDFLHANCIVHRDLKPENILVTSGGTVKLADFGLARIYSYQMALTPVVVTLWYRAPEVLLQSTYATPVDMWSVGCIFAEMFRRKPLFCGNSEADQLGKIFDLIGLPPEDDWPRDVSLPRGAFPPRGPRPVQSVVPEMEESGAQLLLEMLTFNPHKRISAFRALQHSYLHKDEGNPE
Chain of human CDK4 and genetically truncated (1-264) cyclin D3 (P30281 1-264 partner): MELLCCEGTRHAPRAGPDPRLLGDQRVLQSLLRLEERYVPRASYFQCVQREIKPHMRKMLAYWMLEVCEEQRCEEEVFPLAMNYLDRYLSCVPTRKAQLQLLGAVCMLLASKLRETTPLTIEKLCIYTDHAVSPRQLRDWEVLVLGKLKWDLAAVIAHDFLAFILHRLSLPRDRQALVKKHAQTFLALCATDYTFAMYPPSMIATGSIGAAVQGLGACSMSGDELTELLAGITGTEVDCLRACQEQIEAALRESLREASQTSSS
Experimental: Cyclin-dependent kinase activity was measured by quantifying the enzyme-catalyzed, time-dependent incorporation of radioactive phosphate from [^32P]ATP or [^33P]ATP into a protein substrate. Unless noted otherwise, assays were performed in 96-well plates in a total volume of 50 μL, in the presence of 10 mM HEPES (N-[2-hydroxyethyl]piperazine-N′-[2-ethanesulfonic acid]) (pH 7.4), 10 mM MgCl2, 25 μM adenosine triphosphate (ATP), 1 mg/mL ovalbumin, 5 μg/mL leupeptin, 1 mM dithiothreitol, 10 mM β-glycerophosphate, 0.1 mM sodium vanadate, 1 mM sodium fluoride, 2.5 mM ethylene glycol-bis(β-aminoethyl ether)-N,N,N′N′-tetraacetic acid (EGTA), 2% (v/v) dimethylsulfoxide, and 0.03-0.4 μCi [^32/33P]ATP per reaction. Reactions were initiated with enzyme, incubated at 30° C., and terminated after 20 minutes by the addition of ethylenediaminetetraacetic acid (EDTA) to 250 mM. The phosphorylated substrate was then captured on a nitrocellulose or phosphocellulose membrane using a 96-well filtration manifold, and unincorporated radioactivity was removed by repeated washing with 0.85% phosphoric acid. Radioactivity was quantified by exposing the dried membranes to a phosphorimager.
Inhibition was measured relative to control wells that contained all reaction components including 2% (v/v) DMSO but no compound, after subtraction of background radioactivity measured in the absence of enzyme. Apparent Ki values of discrete compounds were measured by assaying enzyme activity in the presence of different inhibitor compound concentrations and subtracting the background radioactivity measured in the absence of enzyme. The kinetic parameters (kcat, Km for ATP) were measured for each enzyme under the usual assay conditions by determining the dependence of initial rates on ATP concentration. Inhibition data were fit to an equation for competitive inhibition using Kaleidagraph (Synergy Software), or were fit to an equation for competitive tight-binding inhibition using the software KineTic (BioKin, Ltd.).
Inhibition of CDK4/Cyclin D Retinoblastoma Kinase Activity:
A complex of human CDK4 and genetically truncated (1-264) cyclin D3 was purified using traditional biochemical chromatographic techniques from insect cells that had been co-infected with the corresponding baculovirus expression vectors (see e.g., Meijer and Kim, “Chemical Inhibitors of Cyclin-Dependent Kinases,” Methods in Enzymol,. vol. 283 (1997), pp. 113-128.). The enzyme complex (5 nM) was assayed with 0.3-0.5 μg of purified recombinant retinoblastoma protein fragment (Rb) as a substrate. The engineered Rb fragment (residues 386-928 of the native retinoblastoma protein; 62.3 kDa) contains the majority of the phosphorylation sites found in the native 106-kDa protein, as well as a tag of six histidine residues for ease of purification. Phosphorylated Rb substrate was captured by microfiltration on a nitrocellulose membrane and quantified using a phosphorimager as described above. For measurement of tight-binding inhibitors, the assay duration was extended to 60 minutes, during which the time-dependence of product formation was linear and initial rate conditions were met.

[3] = test system: HCT-116 cell line; experiment: Inhibition of cell growth, tetrazolium salt (MTT) assay; format: cell-based; details: Homo sapiens, HCT-116, 120 h, MTT, three to five days, read-out: HCT-116 IC50
Summary of the method: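 First, cells were seeded in McCoy's 5A medium and held 4 h. Next, inhibitor concentrations in 0.5% (v/v) DMSO were applied for three to five days at 37° C, 5% CO2. Finally, after 4 h with 0.2 mg/mL MTT and medium removal, solubilized formazan was measured at 540 nm.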

Ki [1] [nM]	Ki [2] [nM]	IC50 ([3]; first HCT-116 column (c4)) [nM]	IC50 ([3]; second HCT-116 column (c5)) [nM]	Structure (SMILES)
190	82	–	–	CCOC(=O)N1CCC(Nc2nc(N)c(C(=O)c3c(F)cccc3F)s2)CC1 [Example A1, 4-[4-Amino-5-(2,6-difluoro-benzoyl)-thiazol-2-ylamino]-piperidine-1-carboxylic Acid Ethyl Ester]
> 5000	> 2000	–	–	CC1(C)CC(Nc2nc(N)c(C(=O)c3c(F)cccc3F)s2)CC(C)(C)N1 [Example A2, [4-Amino-2-(2,2,6,6-tetramethyl-piperidin-4-ylamino)-thiazol-5-yl]-(2,6-difluoro-phenyl)-methanone]
1000	830	–	–	Nc1nc(NC2CCNCC2)sc1C(=O)c1c(F)cccc1F [Example A6, [4-Amino-2-(piperidin-4-ylamino)-thiazol-5-yl]-(2,6-difluoro-phenyl)-methanone]
410	380	–	–	CC(C)NC(=O)N1CCC(Nc2nc(N)c(C(=O)c3c(F)cccc3F)s2)CC1 [Example B1, 4-[4-Amino-5-(2,6-difluoro-benzoyl)-thiazol-2-ylamino]-piperidine-1-carboxylic Acid Isopropylamide]
190	420	–	–	C[C@@H](NC(=O)N1CCC(Nc2nc(N)c(C(=O)c3c(F)cccc3F)s2)CC1)c1ccccc1 [Example B3, 4-[4-Amino-5-(2,6-difluoro-benzoyl)-thiazol-2-ylamino]-piperidine-1-carboxylic Acid (1R-Phenyl-ethyl)-amide]
66	62	–	–	COc1ccc(OC)c(NC(=O)N2CCC(Nc3nc(N)c(C(=O)c4c(F)cccc4F)s3)CC2)c1 [Example B4, 4-[4-Amino-5-(2,6-difluoro-benzoyl)-thiazol-2-ylamino]-piperidine-1-carboxylic Acid (2,5-Dimethoxy-phenyl)-amide]
77	210	–	–	Nc1nc(NC2CCN(C(=O)c3ccc(Br)cc3)C2)sc1C(=O)c1c(F)cccc1F (centres unmarked) [Example C18, {4-Amino-2-[1-(4-bromo-benzoyl)-pyrrolidin-3-ylamino]-thiazol-5-yl}-(2,6-difluoro-phenyl)-methanone]
510	150	–	–	Cc1ccc(C(=O)/C=C/C(=O)N2CCC(Nc3nc(N)c(C(=O)c4c(F)cccc4F)s3)CC2)cc1 [Example D9, 1-{4-[4-Amino-5-(2,6-difluoro-benzoyl)-thiazol-2-ylamino]-piperidin-1-yl}-4-p-tolyl-but-2(E)-ene-1,4-dione]
–	140	82	150	CC(=O)/C=C/C(=O)N1CCC(Nc2nc(N)c(C(=O)c3c(F)cccc3F)s2)CC1 [Example D16, 1-{4-[4-Amino-5-(2,6-difluoro-benzoyl)-thiazol-2-ylamino]-piperidin-1-yl}-pent-2(E)-ene-1,4-dione]
54	18	–	–	COc1ccccc1/C=C\C(=O)N1CCC(Nc2nc(N)c(C(=O)c3c(F)cccc3F)s2)CC1 [Example D18, 1-{4-[4-Amino-5-(2,6-difluoro-benzoyl)-thiazol-2-ylamino]-piperidin-1-yl}3(Z)-(2-methoxy-phenyl)-propenone]
105	79	–	–	COc1ccc(Cl)cc1C(=O)N1CCC(Nc2nc(N)c(C(=O)c3c(F)cccc3F)s2)CC1 [Example D19, {4-Amino-2-[1-(5-chloro-2-methoxy-benzoyl)-piperidin-4-ylamino]-thiazol-5-yl}-(2,6-difluoro-phenyl)-methanone]
14	22	–	–	CN(C)S(=O)(=O)N1CCC(Nc2nc(N)c(C(=O)c3c(F)cccc3F)s2)CC1 [Example E1, 4-[4-Amino-5-(2,6-difluoro-benzoyl)-thiazol-2-ylamino]-piperidine-1-sulfonic acid dimethylamide]
1.7	2.5	–	–	Nc1nc(NC2CCN(S(=O)(=O)c3ccc(Cl)nc3)CC2)sc1C(=O)c1c(F)cccc1F [Example F21, 1-(4-Amino-2-[1-(6-chloro-pyridine-3-sulfonyl)-piperidin-4-ylamino]-thiazol-5-yl}-1-(2,6-difluoro-phenyl)-methanone]
1000	400	–	–	Nc1nc(NC2CCN(S(=O)(=O)c3ccc([N+](=O)[O-])cn3)CC2)sc1C(=O)c1c(F)cccc1F [Example F29, 1-{4-Amino-2-[1-(5-nitro-pyridine-2-sulfonyl)-piperidin-4-ylamino]-thiazol-5-yl}-1-(2,6-difluoro-phenyl)-methanone]
99	360	–	–	N#Cc1ccc(S(=O)(=O)N2CCC(Nc3nc(N)c(C(=O)c4c(F)cccc4F)s3)C2)cc1 (centres unmarked) [Example F38, 4-{3-[4-Amino-5-(2,6-difluoro-benzoyl)-thiazol-2-ylamino]-pyrrolidine-1-sulfonyl}-benzonitrile]
520	330	–	–	CS(=O)(=O)N1CCC(Nc2nc(N)c(C(=O)c3c(F)cccc3F)s2)C1 (centres unmarked) [Example F39, [4-Amino-2-(1-methanesulfonyl-pyrrolidin-3-ylamino)-thiazol-5-yl]-(2,6-difluoro-phenyl)-methanone]
58	380	–	–	N#Cc1ccc(S(=O)(=O)N2CC[C@H](Nc3nc(N)c(C(=O)c4c(F)cccc4F)s3)C2)cc1 [Example F40, 4-{3S-[4-Amino-5-(2,6-difluoro-benzoyl)-thiazol-2-ylamino]-pyrrolidine-1-sulfonyl}-benzonitrile]
750	1600	–	–	CS(=O)(=O)N1CC[C@H](Nc2nc(N)c(C(=O)c3c(F)cccc3F)s2)C1 [Example F41, [4-3S-Amino-2-(1-methanesulfonyl-pyrrolidin-3-ylamino)-thiazol-5-yl]-(2,6-difluoro-phenyl)-methanone]
0.46	1.1	–	–	Nc1nc(NC2CCN(S(=O)(=O)c3cncc(Cl)n3)CC2)sc1C(=O)c1c(F)cccc1F [Example F49, {4-Amino-2-[1-(6-chloro-pyrazine-2-sulfonyl)-piperidin-4-ylamino]-thiazol-5-yl}-(2,6-difluoro-phenyl)-methanone]
0.31	0.45	–	–	Nc1nc(NC2CCN(S(=O)(=O)c3ccc(-n4ccnc4)cc3)CC2)sc1C(=O)c1c(F)cccc1F [Example G30, 1-{4-Amino-2-[1-(4-imidazol-1-yl-benzenesulfonyl)-piperidin-4-ylamino]-thiazol-5-yl}-1-(2,6-difluoro-phenyl)-methanone]
4.4	4	–	–	Nc1nc(NC2CCN(S(=O)(=O)CCCn3ccnn3)CC2)sc1C(=O)c1c(F)cccc1F [Example K3, 1-{4-Amino-2-[1-(3-triazol-1-yl-propane-1-sulfonyl)-piperidin-4-ylamino]-thiazol-5-yl}-1-(2,6-difluoro-phenyl)-methanone.]
3.6	–	60	–	Cc1ccccc1CNCCCS(=O)(=O)N1CCC(Nc2nc(N)c(C(=O)c3c(F)cccc3F)s2)CC1 [Example V184, (4-Amino-2-{[1-({3-[(2-methylbenzyl)amino]propyl}sulfonyl)-4-piperidinyl]amino}-1,3-thiazol-5-yl)(2,6-difluorophenyl)methanone.]

Structure (SMILES)	Ki [1] [nM]	Ki [2] [nM]	IC50 ([3]; first HCT-116 column (c4)) [nM]	IC50 ([3]; second HCT-116 column (c5)) [nM]
Nc1nc(NC2CCN(S(=O)(=O)CCN3CCC(c4ccccc4)C3)CC2)sc1C(=O)c1c(F)cccc1F (centres unmarked) [Example N5, (4-Amino-2-{1-[2-(3-phenyl-pyrrolidin-1-yl)-ethanesulfonyl]-piperidin-4-ylamino}-thiazol-5-yl)-(2,6-difluoro-phenyl)-methanone Hydrochloride Salt.]	1.8	1.5	–	–
